Test results reported in publication PMC5656517 (European journal of pharmaceutical sciences : official …, 2017).
In brackets after ≈: the same amount, converted by molar mass. Like-named read-outs stand apart in the source and are kept apart here.

Tests used:
CYP2C9 = CYP2C9 (Homo sapiens, UniProt P11712); assay: Single concentration; details: human liver microsomes
CYP2D6 = CYP2D6 (Homo sapiens, UniProt P10635); assay: Cocktail assay IC50 determination in human liver microsomes; details: substrate dextromethorphan, mean ± standard deviation
Sequence of CYP2D6 (P10635 whole entry): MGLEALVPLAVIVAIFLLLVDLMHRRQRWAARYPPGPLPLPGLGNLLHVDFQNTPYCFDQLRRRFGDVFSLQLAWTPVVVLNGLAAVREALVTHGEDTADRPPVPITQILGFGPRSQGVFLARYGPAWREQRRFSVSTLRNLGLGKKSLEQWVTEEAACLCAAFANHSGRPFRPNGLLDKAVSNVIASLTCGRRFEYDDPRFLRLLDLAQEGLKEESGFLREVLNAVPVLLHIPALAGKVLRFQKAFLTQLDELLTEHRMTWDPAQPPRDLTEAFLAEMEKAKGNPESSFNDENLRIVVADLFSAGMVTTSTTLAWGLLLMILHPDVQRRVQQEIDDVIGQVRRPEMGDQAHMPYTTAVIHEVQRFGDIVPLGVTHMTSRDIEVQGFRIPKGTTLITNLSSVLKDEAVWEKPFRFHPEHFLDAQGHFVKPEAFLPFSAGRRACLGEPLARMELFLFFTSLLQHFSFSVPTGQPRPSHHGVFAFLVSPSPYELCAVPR

CYP3A4 (midazolam) = CYP3A4 (midazolam) (Homo sapiens, UniProt P08684); assay: KI and kinact determination in human liver microsomes; format: in vitro ADME
Sequence of CYP3A4 (midazolam) (P08684 whole entry): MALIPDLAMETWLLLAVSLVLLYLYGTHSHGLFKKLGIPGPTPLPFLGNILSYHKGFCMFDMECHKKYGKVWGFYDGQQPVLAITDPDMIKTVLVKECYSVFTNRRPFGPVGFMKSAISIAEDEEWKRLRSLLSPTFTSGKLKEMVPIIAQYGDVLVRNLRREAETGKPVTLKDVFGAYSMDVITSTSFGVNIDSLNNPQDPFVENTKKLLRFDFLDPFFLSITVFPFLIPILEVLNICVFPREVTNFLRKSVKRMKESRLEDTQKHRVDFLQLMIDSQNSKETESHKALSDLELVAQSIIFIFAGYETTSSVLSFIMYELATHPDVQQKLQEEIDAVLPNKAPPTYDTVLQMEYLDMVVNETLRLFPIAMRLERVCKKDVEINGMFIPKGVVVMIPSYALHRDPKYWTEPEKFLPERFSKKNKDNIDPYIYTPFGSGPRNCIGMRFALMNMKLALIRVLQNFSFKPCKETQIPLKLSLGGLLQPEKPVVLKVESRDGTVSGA

CYP2E1 = CYP2E1 (Homo sapiens, UniProt P05181); assay: Cocktail assay IC50 determination in human liver microsomes; details: substrate chloroxazone
Sequence of CYP2E1 (P05181 whole entry): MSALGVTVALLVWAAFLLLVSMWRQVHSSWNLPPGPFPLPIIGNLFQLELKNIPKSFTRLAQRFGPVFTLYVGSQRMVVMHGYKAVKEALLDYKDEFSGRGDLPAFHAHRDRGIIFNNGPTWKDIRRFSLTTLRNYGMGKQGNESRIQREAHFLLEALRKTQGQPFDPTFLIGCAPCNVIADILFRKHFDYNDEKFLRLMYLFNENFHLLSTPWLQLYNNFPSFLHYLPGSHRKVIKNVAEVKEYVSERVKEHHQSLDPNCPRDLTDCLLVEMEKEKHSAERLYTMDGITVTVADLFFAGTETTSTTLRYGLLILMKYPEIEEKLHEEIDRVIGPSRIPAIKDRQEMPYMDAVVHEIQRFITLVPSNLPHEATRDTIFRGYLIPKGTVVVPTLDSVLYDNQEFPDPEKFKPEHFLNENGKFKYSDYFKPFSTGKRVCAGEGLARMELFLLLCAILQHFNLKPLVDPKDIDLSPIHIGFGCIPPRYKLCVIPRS

CYP3A4 [1] = target: T1, CYP3A4 (Homo sapiens, UniProt P08684); assay: as above; details: mean ± standard deviation
Target sequence in this assay (P08684 whole entry): as the sequence (P08684 whole entry) above

CYP2A6 = target: T2, CYP2A6 (Homo sapiens, UniProt P11509); assay: as above; details: substrate coumarin
T2 sequence (P11509 1-494): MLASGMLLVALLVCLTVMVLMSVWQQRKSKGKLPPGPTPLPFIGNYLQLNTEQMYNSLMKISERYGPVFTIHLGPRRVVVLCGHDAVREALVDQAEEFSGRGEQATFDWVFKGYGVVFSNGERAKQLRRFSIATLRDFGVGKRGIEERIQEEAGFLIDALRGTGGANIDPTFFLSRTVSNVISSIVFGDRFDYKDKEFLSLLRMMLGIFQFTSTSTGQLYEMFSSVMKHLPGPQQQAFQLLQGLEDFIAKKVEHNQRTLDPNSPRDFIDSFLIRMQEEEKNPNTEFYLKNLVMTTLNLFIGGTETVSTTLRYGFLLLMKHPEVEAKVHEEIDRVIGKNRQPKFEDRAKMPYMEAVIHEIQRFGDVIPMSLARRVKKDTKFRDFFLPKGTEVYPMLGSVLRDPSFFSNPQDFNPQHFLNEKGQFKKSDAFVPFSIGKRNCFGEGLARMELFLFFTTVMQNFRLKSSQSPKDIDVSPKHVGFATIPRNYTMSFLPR

CYP3A4 [2] = target: T1, CYP3A4; assay: Single concentration; details: human liver microsomes
Target sequence in this assay (P08684 whole entry): as the sequence (P08684 whole entry) above

CYP3A4 [3] = target: T1, CYP3A4; format: in vitro ADME; details: recombinant human CYP3A4, 20 µM
Target sequence in this assay (P08684 2-503 limits assumed): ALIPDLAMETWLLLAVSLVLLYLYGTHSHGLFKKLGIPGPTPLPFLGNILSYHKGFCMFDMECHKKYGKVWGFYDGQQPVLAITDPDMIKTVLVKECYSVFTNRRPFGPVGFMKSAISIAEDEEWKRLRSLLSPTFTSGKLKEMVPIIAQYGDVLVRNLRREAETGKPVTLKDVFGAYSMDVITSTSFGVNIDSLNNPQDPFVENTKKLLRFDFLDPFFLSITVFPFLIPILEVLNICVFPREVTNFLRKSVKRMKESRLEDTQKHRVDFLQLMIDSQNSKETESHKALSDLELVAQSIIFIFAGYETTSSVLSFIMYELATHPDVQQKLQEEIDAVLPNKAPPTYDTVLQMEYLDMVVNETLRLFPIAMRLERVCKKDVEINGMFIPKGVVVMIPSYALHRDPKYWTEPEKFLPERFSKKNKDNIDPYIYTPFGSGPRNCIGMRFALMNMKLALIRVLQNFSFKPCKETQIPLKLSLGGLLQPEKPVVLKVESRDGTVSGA

CYP3A4 [4] = target: T1, CYP3A4; assay: KI and kinact determination with recombinant CYP3A4; format: in vitro ADME
Target sequence in this assay (P08684 2-503 limits assumed): as above

CYP1A2 = target: T3, CYP1A2 (Homo sapiens, UniProt P05177); assay: Cocktail assay IC50 determination in human liver microsomes; details: substrate phenacetin, mean ± standard deviation
T3 sequence (P05177 1-516): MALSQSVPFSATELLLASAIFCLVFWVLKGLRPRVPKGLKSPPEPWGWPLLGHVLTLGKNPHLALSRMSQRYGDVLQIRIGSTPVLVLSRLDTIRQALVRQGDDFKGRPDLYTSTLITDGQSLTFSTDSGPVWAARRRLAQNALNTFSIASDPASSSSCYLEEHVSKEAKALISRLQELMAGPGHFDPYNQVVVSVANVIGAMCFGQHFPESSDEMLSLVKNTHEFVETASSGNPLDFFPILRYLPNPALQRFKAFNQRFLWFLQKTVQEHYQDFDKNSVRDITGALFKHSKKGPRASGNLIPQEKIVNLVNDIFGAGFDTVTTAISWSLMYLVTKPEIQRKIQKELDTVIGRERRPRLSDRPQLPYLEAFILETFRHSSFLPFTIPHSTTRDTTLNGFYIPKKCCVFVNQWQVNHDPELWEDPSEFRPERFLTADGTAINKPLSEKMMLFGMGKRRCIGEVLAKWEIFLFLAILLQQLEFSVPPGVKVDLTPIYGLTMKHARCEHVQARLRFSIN

CYP3A4 [5] = target: T1, CYP3A4; assay: Effect of washing to restore CYP3A4 activity, human liver microsomes; format: in vitro ADME; details: 50 µM, 30 min preincubation, washed 3 times, midazolam
Target sequence in this assay (P08684 whole entry): as the sequence (P08684 whole entry) above

Sequence of CYP2C9 (P11712 whole entry): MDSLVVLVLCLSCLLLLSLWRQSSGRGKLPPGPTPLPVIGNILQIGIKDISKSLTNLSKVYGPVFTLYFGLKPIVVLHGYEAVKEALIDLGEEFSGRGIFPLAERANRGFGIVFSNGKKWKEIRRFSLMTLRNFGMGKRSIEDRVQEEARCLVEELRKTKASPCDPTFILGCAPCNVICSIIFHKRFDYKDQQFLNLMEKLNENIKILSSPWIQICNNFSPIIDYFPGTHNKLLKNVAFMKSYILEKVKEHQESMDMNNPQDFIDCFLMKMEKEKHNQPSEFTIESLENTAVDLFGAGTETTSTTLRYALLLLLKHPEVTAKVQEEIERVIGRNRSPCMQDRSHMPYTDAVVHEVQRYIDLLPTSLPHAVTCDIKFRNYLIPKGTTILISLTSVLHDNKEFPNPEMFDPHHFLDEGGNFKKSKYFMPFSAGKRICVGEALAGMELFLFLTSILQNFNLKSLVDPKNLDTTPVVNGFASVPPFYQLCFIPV

C=CC(C)(C)c1cc(/C=C/C(=O)c2ccc(O)cc2)c(OC)cc1O [Licochalcone A, licochalcone A]
inhibition of CYP2C9 at 10 µM, in words (CYP2C9): strongly inhibited
IC50, CYP2D6 (CYP2D6): 17.23 ± 1.68 µg/mL (≈ 50.9 µM)
Efficiency of inactivation (CYP3A4 (midazolam); human liver microsomes): 0.0033 µM⁻¹ min⁻¹
kinact for inactivation of CYP3A4 (midazolam) (CYP3A4 (midazolam); human liver microsomes): 0.38 min⁻¹
type of CYP3A4 inhibition, conclusion in words (CYP3A4 (midazolam); human liver microsomes and recombinant CYP3A4): mechanism based inhibitor
KI (inactivation) (CYP3A4 (midazolam); read-out: KI for inactivation of CYP3A4 (midazolam), human liver microsomes): 116 µM
IC50, CYP2E1 (CYP2E1): >25 µg/mL
IC50, CYP3A4 (midazolam) (CYP3A4 [1]; substrate midazolam): 16.05 ± 1.91 µg/mL (≈ 47.4 µM)
IC50, CYP3A4 (testosterone) (CYP3A4 [1]; substrate testosterone): 6.78 ± 1.27 µg/mL (≈ 20 µM)
IC50, CYP2A6 (CYP2A6): >25 µg/mL
inhibition of CYP3A4 (testosterone) at 10 µM, in words (CYP3A4 [2]): moderate inhibitor
% Control activity (CYP3A4 [3]; NADPH, 2 mM glutathione): 32.4%
% Control activity (CYP3A4 [3]; NADPH, 1000 U/mL catalase): 38.8%
% Control activity (CYP3A4 [3]; NADPH, 1000 U/mL superoxide dismutase): 28.1%
% Control activity (CYP3A4 [3]; NADPH, mean of two experiments): 42.0%
% Control activity (CYP3A4 [3]; without NADPH, mean of two experiments): 100%
KI (inactivation) (CYP3A4 [4]; read-out: KI for inactivation of CYP3A4 (midazolam), recombinant human CYP3A4): 2.22 µM
Efficiency of inactivation (CYP3A4 [4]; recombinant CYP3A4): 0.021 µM⁻¹ min⁻¹
kinact for inactivation of CYP3A4 (midazolam) (CYP3A4 [4]; recombinant human CYP3A4): 0.047 min⁻¹
IC50, CYP1A2 (CYP1A2): 12.40 ± 3.47 µg/mL (≈ 36.6 µM)
remaining enzyme activity after washing out the inhibitor (CYP3A4 [5]): 57%
